These results are taken from ChEMBL document CHEMBL4190189, “Exploring Jolkinol D Derivatives To Overcome Multidrug Resistance in Cancer” (J Nat Prod, 2017).

The structures appear in SMILES notation. Active and inactive are the calls of the source. The rule behind the calls is not given here.

For series [1], the system named is L5178Y. Description: Cytotoxicity against mouse L5178Y cells assessed as reduction in cell viability after 72 hrs by MTT assay. It is filed as cell-based. In general terms: Formazan colour is commonly taken as a measure of viable cells.
The test system of series [2] is L5178Y. Description: Cytotoxicity against mouse L5178Y cells transfected with human ABCB1 assessed as reduction in cell viability after 72 hrs by MTT assay. It is filed as functional, cell-based.
Series [3] has as its target T1, ATP-dependent translocase ABCB1 (Homo sapiens, UniProt P08183). Description: Modulation of human ABCB1 expressed in mouse L5178Y cells assessed as fluorescence activity ratio at 2 uM pretreated for 10 mins followed by rhodamine-123 addition measured after 20 mins by flow cytometry (reference value: 0.87). It is filed as cell-based. In general terms: Flow cytometry measures light scatter and fluorescence of single cells or particles in a stream.

The target in series [4] is T1, ATP-dependent translocase ABCB1. Description: Modulation of human ABCB1 expressed in mouse L5178Y cells assessed as fluorescence activity ratio at 20 uM pretreated for 10 mins followed by rhodamine-123 addition measured after 20 mins by flow cytometry (reference value: 0.87). The format is cell-based.
The target is the same in series [5]. Description: Inhibition of human ABCB1 expressed in mouse L5178Y cells assessed as potentiation of doxorubicin-induced cytotoxicity by measuring combination index at 200:1 compound to doxorubicin ratio after 48 hrs by MTT assay. It is filed as cell-based.
A short description of series [6]: Cytotoxicity against human EPG85-257RNOV cells assessed as reduction in cell viability after 5 days by SRB assay. The format is functional, cell-based. As to conditions: 120 h. (The SRB assay estimates cell density from bound dye.)
Series [7] can be described thus: Resistance ratio of IC50 for human EPG85-257P cells to IC50 for human EPG85-257RNOV cells. It is filed as functional.
Series [8] can be described thus: Resistance ratio of IC50 for human EPG85-257P cells to IC50 for human EPG85-257RDB cells. The format is functional.
The nature of series [9]: Resistance ratio of IC50 for human EPP85-181P cells to IC50 for human EPP85-181RDB cells. The format is functional.
For series [10], the target named is T1, ATP-dependent translocase ABCB1. Description: Inhibition of human ABCB1 expressed in mouse L5178Y cells assessed as potentiation of doxorubicin-induced cytotoxicity by measuring combination index at 18:1 compound to doxorubicin ratio after 48 hrs by MTT assay. The format is cell-based.
The nature of series [11]: Cytotoxicity against human EPG85-257P cells assessed as reduction in cell viability after 5 days by SRB assay. The format is cell-based. As to conditions: 120 h.
The nature of series [12]: Cytotoxicity against human EPG85-257RDB cells assessed as reduction in cell viability after 5 days by SRB assay. To be noted: 120 h. It is filed as functional, cell-based.
A short description of series [13]: Induction of apoptosis in human EPG85-257P cells at 30 uM after 72 hrs by annexin-V/propidium iodide staining based flow cytometric method relative to control. It is filed as cell-based.
The species entered for series [14] is Homo sapiens. Description: Induction of apoptosis in human EPG85-257RDB cells at 30 uM after 72 hrs by annexin-V/propidium iodide staining based flow cytometric method relative to control. The format is functional.
Series [15] in a line: Induction of apoptosis in human EPG85-257P cells assessed as caspase-3 activation at 30 uM after 72 hrs by flow cytometric method relative to control. The format is cell-based. To be noted: 72 h, 30 µM.
The species entered for series [16] is Homo sapiens. Description: Induction of apoptosis in human EPG85-257RDB cells assessed as caspase-3 activation at 30 uM after 72 hrs by flow cytometric method relative to control. The format is functional.
The species named for series [17] is Homo sapiens. Description: Induction of apoptosis in human EPG85-257RNOV cells assessed as caspase-3 activation at 30 uM after 72 hrs by flow cytometric method relative to control. It is filed as functional.
The species entered for series [18] is Homo sapiens. Description: Induction of apoptosis in human EPG85-257RNOV cells at 30 uM after 72 hrs by annexin-V/propidium iodide staining based flow cytometric method relative to control. The format is functional.

For orientation: IC50 means the concentration at which inhibition is half-maximal.

T1 sequence (P08183 whole entry): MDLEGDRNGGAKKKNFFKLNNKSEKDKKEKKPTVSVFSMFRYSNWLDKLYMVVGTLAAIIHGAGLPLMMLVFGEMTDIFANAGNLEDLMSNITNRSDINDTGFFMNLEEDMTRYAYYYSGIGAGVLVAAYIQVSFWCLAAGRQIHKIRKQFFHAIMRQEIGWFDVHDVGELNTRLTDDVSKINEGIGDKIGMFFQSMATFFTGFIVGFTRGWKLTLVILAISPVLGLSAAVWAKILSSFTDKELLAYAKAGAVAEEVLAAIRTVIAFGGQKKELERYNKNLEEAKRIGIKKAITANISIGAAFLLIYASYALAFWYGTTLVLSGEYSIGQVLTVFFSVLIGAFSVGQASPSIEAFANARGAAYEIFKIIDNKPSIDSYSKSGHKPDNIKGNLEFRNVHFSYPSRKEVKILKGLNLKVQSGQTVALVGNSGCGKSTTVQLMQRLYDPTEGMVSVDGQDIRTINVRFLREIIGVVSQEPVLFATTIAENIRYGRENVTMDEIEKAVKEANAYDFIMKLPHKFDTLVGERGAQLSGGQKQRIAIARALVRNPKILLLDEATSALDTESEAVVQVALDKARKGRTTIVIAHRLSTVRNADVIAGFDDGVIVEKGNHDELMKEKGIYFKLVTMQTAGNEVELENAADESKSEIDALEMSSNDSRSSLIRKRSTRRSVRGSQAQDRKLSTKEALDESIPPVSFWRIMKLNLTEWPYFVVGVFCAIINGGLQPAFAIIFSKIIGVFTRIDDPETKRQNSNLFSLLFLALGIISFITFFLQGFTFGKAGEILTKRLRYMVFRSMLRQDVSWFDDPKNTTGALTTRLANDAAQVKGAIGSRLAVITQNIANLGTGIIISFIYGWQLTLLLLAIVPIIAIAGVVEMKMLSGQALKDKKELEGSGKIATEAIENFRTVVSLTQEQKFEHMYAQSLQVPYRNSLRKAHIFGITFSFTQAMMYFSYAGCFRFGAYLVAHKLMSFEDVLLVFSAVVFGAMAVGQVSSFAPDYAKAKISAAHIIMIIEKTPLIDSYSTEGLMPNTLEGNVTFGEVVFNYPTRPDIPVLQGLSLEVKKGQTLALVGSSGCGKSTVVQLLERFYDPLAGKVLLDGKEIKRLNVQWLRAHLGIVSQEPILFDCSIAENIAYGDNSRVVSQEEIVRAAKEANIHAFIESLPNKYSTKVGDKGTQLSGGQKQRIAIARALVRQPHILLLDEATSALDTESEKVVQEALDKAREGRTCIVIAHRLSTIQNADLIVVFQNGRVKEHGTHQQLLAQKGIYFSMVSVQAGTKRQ

Turning to `C/C1=C/[C@H]2[C@@H](OC(=O)c3ccc4ccccc4c3)[C@@H](C)C[C@]2(O)C(=O)/C(C)=C/[C@@H]2[C@H](CC1)C2(C)C`, the IC50 is more than 19 µM in the series with L5178Y [1], more than 19 µM in the series on L5178Y [2] and less than 10 µM in series [6]. Also, the Ratio in series [3] turned out to be 8.3; in [4], 16.7. For the same compound, the CI in [5] worked out at 0.2. Also, the figures for the “Ratio IC50” value in series [7], in [8] and in series [9] were 0.4, 0.3 and 0.3, respectively.

As for `CC(=O)O[C@]12C[C@H](C)[C@H](OC(=O)Oc3ccccc3)[C@@H]1/C=C(/C)CC[C@H]1[C@@H](/C=C(\C)C2=O)C1(C)C`, the IC50 with L5178Y [1] was more than 19 µM; in the series with L5178Y [2], more than 19 µM; in series [6], 5.55 µM; in [11], 6.24 µM; in series [12], 2.34 µM. In addition, the Ratio in series [3] is 10.8; in series [4], 19.5. The CI in series [10] stood at 0.5. The Activity result in [13] and in series [15] was “Toxic” throughout. Also, the outcome in the series listed under Homo sapiens [14], in the series listed under Homo sapiens [16], in the series listed under Homo sapiens [17] and in the series filed under Homo sapiens [18] was Active. The “Ratio IC50” value in [8] was 0.4.
